Laboratory results taken from patent EP1330254B1, “TREATMENT OF CANCERS BY APLIDINE IN CONJUNCTION WITH CARNITINE OR ACETYLCARNITINE” (priority 2000, dated 2002).
Read-outs that look alike come from different tables or passages of the source. Starred links: 1 amine or outer side, 2 acyl side, 3 side chain; linkers in the order of their positions; H or OH if unused. Positions of bridges follow the written chain, without caps; N, C: chain ends. Non-standard residues stand in square brackets, D forms with d. Residues, ends and D or L forms follow the SMILES beside them. *: point of attachment. X1 = CC[C@H](C)[C@@H](N[*:1])[C@@H](O)CC(=O)O[C@H](C(=O)[C@H](C)C(=O)[*:2])C(C)C; NMeY = CN[C@@H](Cc1ccc(O)cc1)C(=O)O; dNMeL = CN[C@H](CC(C)C)C(=O)O; Pyruvoyl = CC(=O)C(=O)*

How the values were obtained:
[1] = Phase I study, 24h continuous infusion every other week: pharmacokinetics; assay type: in vivo, human; conditions: for half-life: human, iv
Procedure: (§1) A phase I and pharmacokinetic study of aplidine, given as a 24h continuous infusion every other week in patients with solid tumours and non-Hodgkin lymphoma

[2] = Phase I dosing regimes with and without carnitine (MTD, DLT, RD); assay type: in vivo, human; set-up: recommended dose, RD: unit not given here
Source text: The Recommended Dose (RD) is the highest dose which can be safely administered to a patient producing tolerable, manageable and reversibly toxicity according to the Common Toxicity Criteria established by the National Cancer Institute, (USA) with no more than 2 out of 6 patients presenting any dose limiting toxicities (DLT). Guidelines for cancer therapy frequently call for administration of chemotherapeutic agents at the highest safe dose at which toxicity is manageable in order to achieve maximum efficacy (DeVita, V.T. Jr., Hellman, S. and Rosenberg, S.A., Cancer: Principles and Practice of Oncology, 3rd ed., 1989, Lipincott, Philadelphia).
DLTs for aplidine using this method of treatment were determined in clinical studies. These studies established a recommended dose level for differing kinds of dosing protocols.

[3] = L-carnitine as myoprotector in aplidine patients (study APL-A-003-98); assay type: in vivo, human; conditions: every second week, 24-hour infusion, with L-carnitine 4.5 g/day or 0.1mg/kg
Procedure: More generally, the invention involves the use of a muscle protector in conjunction with aplidine therapy. We have found in particular that carnitine is beneficial in treating myotoxicity that is associated with chemotherapy with the experimental drug aplidine. […] When L-carnitine 4.5 g/day was added to the therapy (at doses of 1.5 g three times daily), or […] (at doses of […] 3 times daily) patients were able to tolerate doses of aplidine up to 6000 mcg/m 2 every second week. […] Therefore, muscle protectors such as L-carnitine is a useful myoprotector for patients being treated with aplidine or an aplidine analogue.
L-carnitine at a dose of 1.5 grams 3 times per day or 0.033 g/kg 3 times per day was started in all patients of study APL-A-003-98.
The dose may be decreased to manage the above effects.

CT-1 = CT-1 epithelial-like cell line; cited from earlier work
human cancer xenografts = conditions: cited from earlier work
MDA-MB231 and MCF-7 = conditions: treated breast cancer cells; cited from earlier work
[4] = Phase I study, 24h continuous infusion every other week: toxicities; assay type: in vivo, human
Procedure: as §1
Characterisation of Muscular Toxicity (DLT)

lewis lung carcinomas = conditions: cited from earlier work
[5] = test system: Non-small cell lung cancer, breast cancer and melanoma cell lines; conditions: continuous exposure; cited from earlier work
ornithine decarboxylase = target: T1, ornithine decarboxylase (Homo sapiens, UniProt P11926); conditions: all three cell lines CT-1, CT-2, HT-29; cited from earlier work
T1 construct: endogenous in cells; host or cells: CT-1, CT-2 and HT-29 colon cell lines

MCF-7 = conditions: aplidine 50 nmol/L; cited from earlier work
human bladder cancer = test: bladder cancer animal models; assay type: in vivo
CT-2 = CT-2 epithelial-like cell line; cited from earlier work
[6] = Phase I studies: features of aplidine myotoxicity; assay type: in vivo, human
Source text: The presentation is variable among patients. Mild cases have muscle cramps (at doses from 3200 mcg/m2 every 2 weeks), while in more severe cases the symptoms are associated to reversible increases in creatin-kinase (CK) reaching up to grade 3. In the dose-limiting cases there is weakness of proximal distribution. The effect has a delayed onset, appearing after 3 to 8 (median 4) infusions of the drug.

[7] = test system: solid tumours and non-Hodgkin lymphoma; test: Phase I study, 24h continuous infusion every other week: antitumour activity; assay type: in vivo, human; conditions: patients
Procedure: as §1

MDA-MB231 = conditions: aplidine 50 nmol/L; cited from earlier work
prostate tumour = conditions: 1.25 mg/kg, prostate tumour growth inhibition; cited from earlier work
[8] = test system: gene (FLT1) encoding the receptor of the Vascular Endothelial Growth Factor (VEGF); test: inhibition of gene expression; assay type: cell-based
cell cycle = conditions: flow cytometric analysis; cited from earlier work
[9] = stability of aplidine solution and lyophilised formulation; assay type: physicochemical; conditions: solubilised aplidine, heat and light stress testing conditions
Procedure: In a currently preferred embodiment freeze-drying was performed from a 500 mg/mL solution of aplidine in 40% (v/v) tert-butanol in Water for Injection (WfI) containing 25 mg/mL D-mannitol as bulking agent.

HT-29 = HT-29 human colon cancer cell line; cited from earlier work
VEGF protein = test: VEGF production by tumour cells; assay type: cell-based
gastric tumours = conditions: 1.25 mg/kg; cited from earlier work
B16 melanoma = conditions: mice; cited from earlier work
[10] = Phase I study, 24h continuous infusion every other week: toxicities; assay type: in vivo, human; conditions: Pat #27, medullary thyroid carcinoma, 6000 µg/m^2 weekly
P388 leukaemia = conditions: mice; cited from earlier work
[11] = 24 hour infusion every 2 weeks, L-carnitine daily
[12] = weekly 1 hour infusion for 3 weeks, 1 week rest
[13] = weekly 24 hour infusion for 3 weeks, 1 week rest
[14] = 200 mcg/m^2/2wks, patients affected of 3
[15] = 400 mcg/m^2/2wks, patients affected of 3
[16] = 800 mcg/m^2/2wks, patients affected of 3
[17] = 1600 mcg/m^2/2wks, patients affected of 6
[18] = 3200 mcg/m^2/2wks, patients affected of 3
[19] = 4000 mcg/m^2/2wks, patients affected of 3
[20] = 5000 mcg/m^2/2wks, patients affected of 3
[21] = 6000 mcg/m^2/2wks, patients affected of 12
[22] = 7000 mcg/m^2/2wks, patients affected of 7

T1 sequence (P11926 whole entry): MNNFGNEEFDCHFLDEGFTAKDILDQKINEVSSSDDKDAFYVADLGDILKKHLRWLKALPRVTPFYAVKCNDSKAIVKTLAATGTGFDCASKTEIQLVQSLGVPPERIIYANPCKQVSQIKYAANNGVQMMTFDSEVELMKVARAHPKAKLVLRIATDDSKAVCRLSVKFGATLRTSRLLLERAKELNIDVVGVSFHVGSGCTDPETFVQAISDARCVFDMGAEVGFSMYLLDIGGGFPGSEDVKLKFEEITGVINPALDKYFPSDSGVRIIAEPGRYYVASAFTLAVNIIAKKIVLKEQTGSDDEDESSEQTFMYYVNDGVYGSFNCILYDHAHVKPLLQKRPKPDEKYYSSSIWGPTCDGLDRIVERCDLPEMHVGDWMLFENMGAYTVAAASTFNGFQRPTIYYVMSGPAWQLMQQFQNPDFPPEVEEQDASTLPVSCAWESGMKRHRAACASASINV

Q: Which results are given for CC[C@H](C)[C@H]1NC(=O)[C@@H](NC(=O)[C@@H](CC(C)C)N(C)C(=O)[C@@H]2CCCN2C(=O)C(C)=O)[C@@H](C)OC(=O)[C@H](Cc2ccc(OC)cc2)N(C)C(=O)[C@@H]2CCCN2C(=O)[C@H](CC(C)C)NC(=O)[C@@H](C)C(=O)[C@H](C(C)C)OC(=O)C[C@@H]1O [aplidine, Dehydrodidemnin B] (Pyruvoyl-P[dNMeL]T[X1]LP[NMeY](Me); ester 3-C)?
A: half-life ([1]; in vivo, the 3 patients with clear muscular toxicity, read-out: t ½): > 44 h; half-life ([1]; plasma, preliminary compartmental analysis, 24 h infusion, read-out: median half-life, longer terminal phase (converted)): 25.8 h; half-life ([1]; plasma, preliminary compartmental analysis, first-order 2-compartment model, read-out: median half-life, rapid initial phase (converted)): 0.64 h; half-life ([1]; plasma, quartiles 15.7-35.0, read-out: t ½, median (converted)): 23.8 h; PK profile ([1]; within the constraints of the low sample size): dose-linear; dose-limiting toxicity ([2]; 1-hour infusion for 5 consecutive days every 3 weeks): Muscular/long lasting emesis; dose-limiting toxicity ([2]; 24 hour infusion every 2 weeks): Muscular; recommended dose, RD ([2]; 24 hour infusion every 2 weeks): 5000; dose-limiting toxicity [2, 11]: Flu-like syndrome; recommended dose, RD [2, 11]: 7000; dose-limiting toxicity [2, 12]: Muscular; recommended dose, RD [2, 12]: 3250; dose-limiting toxicity [2, 13]: Muscular/ hepatic; recommended dose, RD [2, 13]: 3750; RD ([2]; with L-carnitine 0.1 g/kg /day, for Phase II studies): 7 mg/m^2; doses of aplidine patients were able to tolerate [3]: up to 6000 mcg/m 2; cytotoxic activity (CT-1): dose-dependent cytotoxic activity; treated/control (T/C) tumour ratio (human cancer xenografts; 2.1 mg/kg, near complete remissions in some animals): 9%; maximum tolerated dose (human cancer xenografts; mice bearing human cancer xenografts): 2.1 mg/kg; spermidine and spermine (MDA-MB231 and MCF-7): significant increase; muscle biopsies, E/M ([4]; 2 patients): partial disappearance of thick filaments of myosin; CPK elevations ([4]; 3 patients (5000 and 6000 µg/m^2), CPK MM increase): minor elevations of CPKs (≥G2); Nausea/vomiting G2 [4, 14]: 2; Transaminitis G2 [4, 14]: 1; Asthenia G2 [4, 15]: 2; Hypertension G2 [4, 15]: 1; Nausea/vomiting G2 [4, 15]: 1; Flushing G1 [4, 16]: 1; Muscle cramps G1+G2 [4, 16]: 2; Asthenia G2 [4, 17]: 2; Asthenia G3 [4, 17]: 1; Muscle cramps G1+G2 [4, 17]: 1; Nausea/vomiting G2 [4, 17]: 4; Transaminitis G3 [4, 17]: (1); Asthenia G2 [4, 18]: 1; Flushing G1 [4, 18]: 1; Muscle cramps G1+G2 [4, 18]: 2; Muscle pain G2 [4, 18]: (1); Nausea/vomiting G3 [4, 18]: (1); Asthenia G2 [4, 19]: 1; Flushing G1 [4, 19]: 1; Muscle cramps G1+G2 [4, 19]: 2; Muscle pain G1 [4, 19]: 2; Nausea/vomiting G2 [4, 19]: 2; Pain central catheter G2 [4, 19]: 2; Asthenia G3 [4, 20]: (1); CPK elevation G3 [4, 20]: (1) [1]; CPK elevation G4 [4, 20]: (1) [1]; Muscle cramps G1+G2 [4, 20]: 2; Muscle pain G1 [4, 20]: 1; Muscle weakness G1 [4, 20]: 1; Nausea/vomiting G2 [4, 20]: 1; Transaminitis G2 [4, 20]: 1; dose limiting toxicity (drug induced muscular changes) ([4]; 6000 mcg/m^2): 1/9; Asthenia G2 [4, 21]: 6; CPK elevation G2 [4, 21]: 1(1); CPK elevation G3 [4, 21]: 1(1); Muscle cramps G1+G2 [4, 21]: 1; Muscle pain G1 [4, 21]: 1; Muscle pain G2 [4, 21]: 2; Muscle weakness G1 [4, 21]: 1(1); Muscle weakness G2 [4, 21]: 1(1); Nausea/vomiting G2 [4, 21]: 2; Asthenia G2 [4, 22]: 2; CPK elevation G2 [4, 22]: 1; Flushing G1 [4, 22]: 1; Muscle pain G1 [4, 22]: 1; Nausea/vomiting G2 [4, 22]: 1; Neutrophenia G4 [4, 22]: 1; Transaminitis G2 [4, 22]: 1; toxicity recovered after treatment discontinuation ([4]; Pat #27, 6000 µg/m^2): ≤ 3 weeks; activity in SC implanted lewis lung carcinomas (lewis lung carcinomas): active; concentrations at which cell lines were sensitive [5]: >= 0.001 micromol/L; ornithine decarboxylase activity (ornithine decarboxylase): decreased; inhibited the growth (MCF-7): 47%; activity on human bladder cancer (human bladder cancer): exceedingly high activity; cytotoxic activity (CT-2): dose-dependent cytotoxic activity; delayed onset of myotoxicity, infusions of the drug, median ([6]; median): 4 infusions; reversible increases in creatin-kinase (CK) ([6]; more severe cases): ≤ 3 grade; light microscopy of muscle ([6]; most biopsied patients): just minimal necrosis or no changes at all; antitumour activity [7]: noted in patients with NHL and renal carcinoma; inhibited the growth (MDA-MB231): 17%; T/C (prostate tumour): 25%; expression of the gene (FLT1) [8]: inhibits expression; cell cycle perturbations (cell cycle): did not induce any apparent cell cycle periubations; degradation [9]: substantial degradation; cytotoxic activity (HT-29): dose-dependent cytotoxic activity; production of the VEGF protein (VEGF protein): severely inhibit production; T/C (gastric tumours): 14%; activity against implanted tumour (B16 melanoma): active; optimal dose (B16 melanoma): 160 micrograms/kg; muscular toxicity (DLT) [10]: symptomatic G3 CPK with G2 muscular pain; activity against implanted tumour (P388 leukaemia): active; optimal dose (P388 leukaemia): 160 micrograms/kg
